Values joined by “and” are separate entries in the source; they are usually repeats but may differ in a detail not shown here. Equal values may be shown once.
Key:
[1] = target: Nurr1:RXR heterodimer (Homo sapiens, UniProt P19793+P43354); experiment: Nurr1 LBD:RXRα LBD heterodimerization assay (HTRF); assay type: biochemical; settings: 10 µM, Figure S4
Experimental: (§1) To determine the molecular response of the Nurr1:RXR heterodimer on dual agonist binding, we employed homogenous time-resolved fluorescence resonance energy transfer (HTRF) based assays with labeled Nurr1 and RXR LBD proteins. Tb^3+-cryptate as streptavidin conjugate served as FRET donor and was coupled to biotinylated proteins. sGFP fusion proteins of the receptors of interest were used as FRET acceptors. Ligand effects on dimer formation were determined by titrating the sGFP-labeled dimer partner with a fixed concentration of the Tb^3+-labeled counterpart. […] The same effect was also observable for the natural product 1 (Figure S3).
(§2) Nurr1 dimerization assays (HTRF). Modulation of Nurr1 LBD homodimerization and heterodimerization of the LDBs of Nurr1 and RXRα was investigated by HTRF as reported previously4. Nurr1 LBD or RXRα LBD proteins labeled with sGFP were titrated against a fixed concentration of Tb3+-cryptate as streptavidin conjugate (Tb-SA) (610SATLF, Revvity) coupled to biotinylated Nurr1 LBD protein in the presence of test compounds at 30 µM or absence of compound as a negative control (apo). Assay solutions were prepared in buffer containing 25 mM HEPES pH 7.5, 150 mM KF, 5% (m/v) glycerol, 5 mM DTT, 0.1% (m/v) CHAPS and 1%
(§3) DMSO. The FRET donor complex was formed from biotinylated Nurr1 LBD (final concentration 0.188 nM) and Tb-SA (0.375 nM) and was kept constant. For the homodimerization assay, the FRET acceptor consisted of sGFP-Nurr1 LBD, which was titrated from 0.5 µM, while free sGFP was added to keep the total GFP content stable at 0.5 µM. […] Samples were equilibrated at room temperature for 2 h and fluorescence intensities (FI) after excitation at 340 nm were recorded at 520 nm for sGFP acceptor fluorescence and at 620 for Tb-SA donor fluorescence on a SPARK plate reader (Tecan Group Ltd.). […]
(§4) Evaluation of Nurr1-regulated gene expression. […] RNA concentration and purity were assessed using a NanoDrop One UV-vis spectrophotometer (Thermo Fisher Scientific) at 260/280 nm. […]

[2] = tested on: RXR; experiment: Gal4 hybrid reporter gene assay, RXR (subtype not stated); assay type: cell-based; settings: for activity on RXR (fold reporter activation vs. DMSO ctrl): 30 and 100 µM, Figure S1, mean±SD, n=3; for RXR activation: amide analogues
Experimental: (§5) modified Eagle’s medium (DMEM), high glucose supplemented with 10% fetal calf serum (FCS), sodium pyruvate (1 mM), penicillin (100 U/mL), and streptomycin (100 μg/mL) at 37 °C and 5% CO2 and seeded in 96-well plates (3×10^4 cells/well). After 24 h, the medium was changed to Opti-MEM without supplements, and the cells were transiently transfected using Lipofectamine LTX reagent (Invitrogen) according to the manufacturer’s protocol. Five hours after transfection, the cells were incubated with the test compounds in Opti-MEM supplemented with penicillin (100 U/mL), streptomycin (100 μg/mL), and 0.1% DMSO for 15 h before luciferase activity was measured using the Dual -Glo Luciferase Assay System (Promega) according to the manufacturer’s protocol on a Tecan Spark l uminometer (Tecan Deutschland GmbH, Germany). Firefly luminescence was divided by Renilla luminescence and multiplied by 1000, resulting in relative light units (RLU) to normalize for transfection efficiency and cell growth. Fold activation was obtained by dividing the mean RLU of a sample by the mean RLU of the untreated control. All samples were tested in at least three biologically independent experiments in duplicates. For dose –response curve fitting and calculation of EC50 values, the equation “[Agonist] vs. response – Variable slope (four parameters)” was used in GraphPad Prism (version 5.04, GraphPad Software, La Jolla, CA, USA). […] (10 μM, NR4A) and bexarotene (1 µM, NR2B) served as the positive control. […]
(§6) 150 μM in the same buffer containing 2-4% DMSO) in 21–26 injections (1 × 1 μL and 20 × 4 to 25 × 4 μL) with an injection interval of 120 s. As control experiments, the test compounds were titrated to the buffer, and the buffer was titrated to the protein under otherwise identical conditions. The heat rates of the compound-Nurr1 LBD titrations were analyzed using NanoAnalyze software (TA Instruments, New Castle, DE) with an independent binding model.

[3] = target: T1, Nurr1 (Homo sapiens, UniProt P43354); experiment: Gal4-hybrid reporter gene assay, Nurr1; assay type: cell-based; settings: for activity on Nurr1 (fold reporter activation vs. DMSO ctrl): 30 and 100 µM, Figure S1, mean±SD, n=3; for remain. Nurr1 activity: 30 μM; for agonist activity on Gal4-Nurr1: amide analogues
T1 construct: pFA-CMV-hNurr1-LBD; expressed in transfected cells; host or cells: HEK293T
Experimental: as §5, §6

[4] = target: T2, RXRα (Homo sapiens, UniProt P19793); experiment: Gal4-hybrid reporter gene assay, RXRα; assay type: cell-based; settings: for RXRα activity at single concentration: 30 μM
T2 construct: pFA-CMV-hRXRα-LBD; expressed in transfected cells; host or cells: HEK293T
T2 sequence (P19793 227-458 limits assumed): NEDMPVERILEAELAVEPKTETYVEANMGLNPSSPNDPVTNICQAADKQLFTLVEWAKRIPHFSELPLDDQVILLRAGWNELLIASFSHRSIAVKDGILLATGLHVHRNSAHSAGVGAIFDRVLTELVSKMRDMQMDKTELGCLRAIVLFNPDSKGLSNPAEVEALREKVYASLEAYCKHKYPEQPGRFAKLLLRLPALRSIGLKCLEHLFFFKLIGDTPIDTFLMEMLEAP
Experimental: as §5, §6

[5] = target: T3, RXRβ (Homo sapiens, UniProt P28702); experiment: Gal4-hybrid reporter gene assay, RXRβ; assay type: cell-based; settings: for RXRβ activity at single concentration: 30 μM
T3 construct: CMV-hRXRβ-LBD; expressed in transfected cells; host or cells: HEK293T
T3 sequence (P28702 296-529 limits assumed): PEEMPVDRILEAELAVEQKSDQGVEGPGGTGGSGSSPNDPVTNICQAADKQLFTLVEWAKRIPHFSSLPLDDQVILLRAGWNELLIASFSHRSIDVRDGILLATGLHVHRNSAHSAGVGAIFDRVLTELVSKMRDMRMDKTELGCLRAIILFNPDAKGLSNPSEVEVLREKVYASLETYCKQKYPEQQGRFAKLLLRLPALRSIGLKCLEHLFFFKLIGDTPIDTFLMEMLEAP
Experimental: as §5, §6

[6] = target: T4, RXRγ (Homo sapiens, UniProt P48443); experiment: Gal4-hybrid reporter gene assay, RXRγ; assay type: cell-based; settings: for RXRγ activity at single concentration: 30 μM
T4 construct: pFA-CMV-hRXRγ-LBD; expressed in transfected cells; host or cells: HEK293T
T4 sequence (P48443 231-459 limits assumed): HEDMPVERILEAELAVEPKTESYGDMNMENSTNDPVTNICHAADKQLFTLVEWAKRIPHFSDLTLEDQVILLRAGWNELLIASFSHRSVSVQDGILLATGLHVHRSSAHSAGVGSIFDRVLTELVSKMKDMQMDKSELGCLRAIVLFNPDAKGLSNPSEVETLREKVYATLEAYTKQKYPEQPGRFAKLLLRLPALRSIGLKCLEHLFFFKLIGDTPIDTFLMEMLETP
Experimental: as §5, §6

[7] = target: T5, Nurr1 homodimer (Homo sapiens, UniProt P43354); experiment: Nurr1 LBD homodimerization assay (HTRF); assay type: biochemical; settings: 30 μM, Tb3+-cryptate and sGFP labeled Nurr1 LBD
T5 construct: Tb^3+-cryptate labeled and sGFP-labeled Nurr1 LBD proteins; FRET acceptor consisted of sGFP-Nurr1 LBD
Experimental: as §1, §2, §3, §4

[8] = target: T6, RXRα LBD (Homo sapiens, UniProt P19793); experiment: Isothermal titration calorimetry, recombinant RXRα LBD; assay type: binding; settings: ITC
T6 construct: made in house
T6 sequence (P19793 227-458 limits assumed): T2 sequence (P19793 227-458 limits assumed)
Experimental: (§7) Isothermal titration calorimetry. ITC experiments for ligand binding to Nurr1 and RXR were conducted on an Affinity ITC instrument (TA Instruments, New Castle, DE) at 25 °C with a stirring rate of 75 rpm using recombinantly expressed ligand binding domain proteins as described previously5,6. The respective LBD protein (12–25 μM) in buffer (20 mM Tris pH 7.5, 100 mM NaCl, 5% glycerol) containing 2-4% DMSO was titrated with the test compounds (100-150 μM in the same buffer containing 2-4% DMSO) in 21–26 injections (1 × 1 μL and 20 × 4 to 25 × 4 μL) with an injection interval of 120 s. As control experiments, the test compounds were titrated to the buffer, and the buffer was titrated to the protein under otherwise identical conditions. The heat rates of the compound-Nurr1 LBD titrations were analyzed using NanoAnalyze software (TA Instruments, New Castle, DE) with an independent binding model.

[9] = target: T7, Nurr1 LBD (Homo sapiens, UniProt P43354); experiment: Isothermal titration calorimetry, recombinant Nurr1 LBD; assay type: binding; settings: ITC
T7 construct: made in house
Experimental: as §7

[10] = Gal4-hybrid reporter gene assay
[11] = Gal4-hybrid reporter gene assay, mean±S.E.M., n≥3

T1 sequence (P43354 360-595 limits assumed): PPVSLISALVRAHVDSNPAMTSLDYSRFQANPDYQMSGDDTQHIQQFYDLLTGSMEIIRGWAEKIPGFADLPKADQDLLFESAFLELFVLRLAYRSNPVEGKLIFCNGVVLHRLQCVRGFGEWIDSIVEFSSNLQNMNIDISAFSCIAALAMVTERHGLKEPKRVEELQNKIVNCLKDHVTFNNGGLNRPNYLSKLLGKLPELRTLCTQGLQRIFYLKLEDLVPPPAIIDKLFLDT
T7 sequence (P43354 360-595 limits assumed): as above
T5 sequence (P43354 360-595 limits assumed): as above
Nurr1:RXR heterodimer, sequence (P43354 360-595 limits assumed, one chain of several): as the sequence (P43354 360-595 limits assumed) above

Structure (SMILES)	activity on RXR (fold reporter activation vs. DMSO ctrl) [2]	activity on Nurr1 (fold reporter activation vs. DMSO ctrl) [3]	RXRα activity at single concentration [4]	Kd(RXRα LBD) [8]	RXR activation [2]	Kd(Nurr1 LBD) [9]	RXRβ activity at single concentration [5]	RXRγ activity at single concentration [6]	remain. Nurr1 activity [3, 10]	agonist activity on Gal4-Nurr1 [3]	also measured
CC1(C)CCC(C)(C)c2cc(C3(c4ccc(C(=O)O)cc4)OCCO3)ccc21 [SR11237, reference compound]	–	–	–	–	–	–	–	–	–	–	Nurr1:RXR heterodimer formation (dimer strength) [1]: Diminished dimer strength
CC(=O)O[C@@H]1CC(C)=C2[C@H]1[C@H](C)CC[C@H]2/C=C(\C)C(=O)O [VA-OAc, acetoxy-valerenic acid, reference compound]	no activity	no activity	–	–	–	–	–	–	–	–	–
CC1=C2[C@@H]([C@H](C)CC[C@H]2/C=C(\C)C(=O)O)[C@H](O)C1 [VA-OH, hydroxy-valerenic acid, reference compound]	no activity	no activity	–	–	–	–	–	–	–	–	–
CC1=C2[C@H](/C=C(\C)C(=O)O)CC[C@@H](C)[C@H]2CC1 [compound 1, valerenic acid]	–	–	–	–	–	–	–	–	–	–	max. act. (RXR) α [4, 10]: 9±1 fold; EC50 [4, 11]: 27 µM; max. act. (RXR) β [5, 10]: 69±1 fold; EC50 [5, 11]: 5.2 µM; max. act. (RXR) γ [6, 10]: 4±1 fold; EC50 [6, 11]: 43 µM; max. act. (Nurr1) ([3]; Gal4-hybrid reporter gene assay, max. fold activation): 1.3 fold and 1.3±0.1 fold; EC50 [3, 11]: 3 ± 1 µM; Nurr1 homodimer formation [7]: same effect
Cc1c2c(n(-c3ccc(CC(N)=O)cc3)c1C)CCC(F)(F)C2 [compound 4]	–	–	α: inactive (30 μM) β: inactive (30 μM) γ: inactive (30 μM)	no binding detected	failed to activate RXR	no binding detected	α: inactive (30 μM) β: inactive (30 μM) γ: inactive (30 μM)	α: inactive (30 μM) β: inactive (30 μM) γ: inactive (30 μM)	86±9% remain. Nurr1 activity (30 μM)	lost agonist activity	–
Cc1c(C)n(-c2ccc(CC(N)=O)cc2)c2ccc(F)cc12 [compound 5]	–	–	α: inactive (30 μM) β: inactive (30 μM) γ: inactive (30 μM)	no binding detected	failed to activate RXR	no binding detected	α: inactive (30 μM) β: inactive (30 μM) γ: inactive (30 μM)	α: inactive (30 μM) β: inactive (30 μM) γ: inactive (30 μM)	85±7% remain. Nurr1 activity (30 μM)	lost agonist activity	–

Reference: paper PMC7618597, “Dual Nurr1/RXR agonism of valerenic acid and synthetic mimetics enables dimer-selective Nurr1 modulation” (ACS medicinal chemistry letters, 2025)
